Results published in US9028845B2, “Chimeric immunomodulatory compounds and methods of using the same-IV” (Dynavax Technologies Corporation, priority 2001, dated 2015).
Marks after values point to notes of the source that are not given here.

Legend:
[1] = test system: hepatitis B surface antigen (HBsAg); conditions: in vivo
CD19+ B cells = test: Human B cell proliferation assay (3H-thymidine incorporation); conditions: 2 μg/ml; for cpm1 / cpm2 / cpm3 / mean cpm / mean of both: B cells
Description: Purified human B cells from 2 donors were stimulated with 5 μg/ml P-6 or CIC for 96 h. Proliferation was assessed by ^3H-thymidine incorporation.
A CIC is considered to induce “little” human B cell proliferation if B cell proliferation in the presence of the CIC is between greater than 15 to about 30% of P-6.
Human PBMCs were isolated from heparanized blood from two normal subjects. Some PBMCs were held in reserve while the remainder was incubated with CD19+ MACS beads (Miltenyi Biotec). These cells were then passed through a magnet, separating the CD19+ B cells through positive selection. […] B cells were then cultured at 1×10^5/200 μl/well in 96-well round-bottomed plates. In some cases, PBMCs were also cultured, but at 2×10^5/200 μl/well. Cells were stimulated in triplicate with 2 μg/ml polynucleotide or CIC. The culture period was 48 hours at 37° C. At the end of the culture period, the plates were pulsed with ^3H-thymidine, 1 μCi/well, and incubated for an additional 8 hours. Then the plates were harvested using standard liquid scintillation techniques and data was collected in counts per minutes (cpm).

mice = test: Serum cytokines (IL-12 p40, IL-6, TNF-α) after subcutaneous injection in mice; format: in vivo; conditions: 20 ug subcutaneous, blood 2 hours later
Description: Blood was collected 2 hours later. For the LPS positive control group, mice were injected intraperitoneally with a 200 ul volume, and blood was collected 1.5 hours later (i.e., at the peak of LPS induced TNF-α activity). The blood was clotted and the serum was prepared and stored at −80° C. until assayed. Serum cytokines were assayed using Biosource cytoscreen kits for TNF-α and Pharmingen antibody pairs for mIL-6 and mIL-12. All samples were assayed in duplicate.

mouse lung = test: Induction of immune-associated genes in the mouse lung after intranasal treatment (quantitative PCR); format: in vivo, BALB/c mice; conditions: 20 ug intranasal, 6 hrs
Description: The genes evaluated included genes encoding cytokines, chemokines, cell surface molecules, transcription factors, metalloproteases, and other molecules. The study was performed at Northview Pacific Laboratories (Hercules, Calif.) with 6-8 week old female BALB/c mice from Jackson Labs (Bar Harbor, Me.). […] Therefore, at 6 hrs the lungs were harvested and snap-frozen in liquid nitrogen and stored at −80° C. for later use. Total RNA was isolated using RNeasy mini kits (Qiagen Inc., Valencia, Calif.). The RNA samples were DNAse-treated (Roche Diagnostics, Mannheim, Germany) and converted into cDNA using Superscript II Rnase H-Reverse Transcriptase (Invitrogen, Rockville Md.) as described in Scheerens et al., 2001, Eur. J. of Immunology 31:1465-74. The cDNA samples were pooled per group and in each pooled sample the expression of mRNA of 75 genes was measured using real-time quantitative PCR (ABI Prism 5700, Perkin Elmer Applied Biosystems) and syber green (Qiagen Inc.). In addition to the genes of interest, in each sample the mRNA expression of a housekeeping gene was measured (HPRT or ubiquitin). In order to correct for the amount of RNA in each sample, all data were calculated relative to the expression of the housekeeping gene.

human PBMCs = test: Human PBMC cytokine response assay (IFN-γ and IFN-α in cell-free medium by ELISA), with or without cPLGA; format: cell-based;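 for IFN-α (pg/ml) mean: 20 µg/mL compound for 24 hours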;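 for IFN-γ (pg/ml) mean: 20 µg/mL compound for 24 hours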
PBMCs = test: Human PBMC proliferation assay (3H-thymidine incorporation); format: cell-based; conditions: Experiment A; for mean cpm: 2 μg/ml
[2] = Water solubility of spacer precursor (dialcohol form); format: physicochemical; conditions: tested as dialcohol precursor of the dodecyl spacer
Description: Thus, the definition of spacers excludes microcarriers or nanocarriers. […] The form of the spacer moiety used for testing its water solubility is generally its most closely related unactivated and unprotected spacer precursor molecule. For example, C-19 contains a spacer moiety including a dodecyl group with phosphorothioate diester linkages at the C-1 and C-12 positions, thereby connecting the spacer moiety to the nucleic acid moieties. […] These higher water solubility spacers include, without limitation, propane 1,3 diol; glycerol; butane-1,4-diol; pentane-1,5-diol; hexane-1,6-diol; triethylene glycol, tetraethylene glycol and HEG.

[3] = donor 28066, 20 ug/ml, 24 h, + PLGA = premixed with 100 μg/ml cPLGA
[4] = donor 28067, 20 ug/ml, 24 h, + PLGA = premixed with 100 μg/ml cPLGA
[5] = donor 28068, 20 ug/ml, 24 h, + PLGA = premixed with 100 μg/ml cPLGA
[6] = mean of Donors 1-2, 20 μg/ml, 24 h
[7] = mean of Donors 9-12, 20 μg/ml, 24 h
[8] = mean of donors 28065-28068, 20 ug/ml, 24 h, + PLGA = premixed with 100 μg/ml cPLGA
[9] = mean of donors 28185-28188, Table 15

Q: What does the source list for “5′-TCGTCGA-3′- C3-5′-ACGTTCG-3′-C3-5′-AGATGAT-3′ [Compound C-9]”?
A: Anti-HBsAg (mIU/ml) post-first, Mean [1]: 68 mIU/ml; Anti-HBsAg (mIU/ml) post-second, Mean [1]: 4135** mIU/ml; B cell proliferation, in words (CD19+ B cells; 48 h plus 8 h 3H-thymidine pulse): cause B cells to proliferate; cpm1 (CD19+ B cells; Donor 146, Experiment A): 35365 cpm; cpm2 (CD19+ B cells; Donor 146, Experiment A): 42705 cpm; cpm3 (CD19+ B cells; Donor 146, Experiment A): 45231 cpm; mean cpm (CD19+ B cells; Donor 146 mean, Experiment A): 41100 cpm; cpm1 (CD19+ B cells; Donor 147, Experiment A): 55543 cpm; cpm2 (CD19+ B cells; Donor 147, Experiment A): 49035 cpm; cpm3 (CD19+ B cells; Donor 147, Experiment A): 44985 cpm; mean cpm (CD19+ B cells; Donor 147 mean, Experiment A): 49854 cpm; cpm1 (CD19+ B cells; donor 121, Experiment B): 21938 cpm; cpm2 (CD19+ B cells; donor 121, Experiment B): 35400 cpm; cpm3 (CD19+ B cells; donor 121, Experiment B): 23877 cpm; mean cpm (CD19+ B cells; donor 121 mean, Experiment B): 27072 cpm; cpm1 (CD19+ B cells; donor 194, Experiment B): 13660 cpm; cpm2 (CD19+ B cells; donor 194, Experiment B): 16717 cpm; cpm3 (CD19+ B cells; donor 194, Experiment B): 17866 cpm; mean cpm (CD19+ B cells; donor 194 mean, Experiment B): 16081 cpm; mean of both (CD19+ B cells; mean of Donors 146 and 147, Experiment A): 45477 cpm; mean of both (CD19+ B cells; mean of donors 121 and 194, Experiment B): 21576 cpm; induction of serum IL-12 p40, IL-6 and TNF-α, in words (mice): induced IL-12 p40, IL-6, and TNF-α; mRNA expression of IFN-alpha in the lung, in words (mouse lung): considerably higher mRNA expression of IFN-alpha; mRNA expression of immune-associated genes in the lung, in words (mouse lung; vs P-7 treated mice): potently induce the expression of a variety of genes; IFN-α (pg/ml) Donor 1 (human PBMCs; Donor 1, 20 μg/ml, 24 h): 142 pg/mL; IFN-γ (pg/ml) Donor 1 (human PBMCs; Donor 1, 20 μg/ml, 24 h): 2157 pg/mL; IFN-α (pg/ml) Donor 2 (human PBMCs; Donor 2, 20 μg/ml, 24 h): 0 pg/mL; IFN-γ (pg/ml) Donor 2 (human PBMCs; Donor 2, 20 μg/ml, 24 h): 171 pg/mL; IFN-α Donor 9 (human PBMCs; Donor 9, 20 μg/ml, 24 h): 8; IFN-γ Donor 9 (human PBMCs; Donor 9, 20 μg/ml, 24 h): 134; IFN-α Donor 10 (human PBMCs; Donor 10, 20 μg/ml, 24 h): 10; IFN-γ Donor 10 (human PBMCs; Donor 10, 20 μg/ml, 24 h): 7; IFN-α Donor 11 (human PBMCs; Donor 11, 20 μg/ml, 24 h): 1; IFN-γ Donor 11 (human PBMCs; Donor 11, 20 μg/ml, 24 h): 56; IFN-α Donor 12 (human PBMCs; Donor 12, 20 μg/ml, 24 h): 15; IFN-γ Donor 12 (human PBMCs; Donor 12, 20 μg/ml, 24 h): 30; IFN-α (human PBMCs; Table 9, donor 28089): 10 pg/mL; IFN-γ (human PBMCs; Table 9, donor 28089): 12 pg/mL; IFN-α (human PBMCs; Table 9, donor 28090): 67 pg/mL; IFN-γ (human PBMCs; Table 9, donor 28090): 7 pg/mL; IFN-α mean (human PBMCs; Table 9, mean of donors): 39 pg/mL; IFN-γ mean (human PBMCs; Table 9, mean of donors): 10 pg/mL; IFN-α (human PBMCs; Table 11, donor 28042): 39 pg/mL; IFN-γ (human PBMCs; Table 11, donor 28042): 691 pg/mL; IFN-α (human PBMCs; Table 11, donor 28043): 0 pg/mL; IFN-γ (human PBMCs; Table 11, donor 28043): 268 pg/mL; IFN-α (human PBMCs; Table 11, donor 28044): 11 pg/mL; IFN-γ (human PBMCs; Table 11, donor 28044): 590 pg/mL; IFN-α (human PBMCs; Table 11, donor 28045): 64 pg/mL; IFN-γ (human PBMCs; Table 11, donor 28045): 1306 pg/mL; IFN-α mean (human PBMCs; Table 11, mean of donors): 29 pg/mL; IFN-γ mean (human PBMCs; Table 11, mean of donors): 714 pg/mL; IFN-α (human PBMCs; Table 13, donor 28156): 26 pg/mL; IFN-γ (human PBMCs; Table 13, donor 28156): 1162 pg/mL; IFN-α (human PBMCs; Table 13, donor 28157): 142 pg/mL; IFN-γ (human PBMCs; Table 13, donor 28157): 729 pg/mL; IFN-α (human PBMCs; Table 13, donor 28158): 78 pg/mL; IFN-γ (human PBMCs; Table 13, donor 28158): 192 pg/mL; IFN-α (human PBMCs; Table 13, donor 28159): 20 pg/mL; IFN-γ (human PBMCs; Table 13, donor 28159): 329 pg/mL; IFN-α mean (human PBMCs; Table 13, mean of donors): 67 pg/mL; IFN-γ mean (human PBMCs; Table 13, mean of donors): 603 pg/mL; IFN-γ (pg/ml) 28065 (human PBMCs; donor 28065 (high background), 20 ug/ml, 24 h, + PLGA = premixed with 100 μg/ml cPLGA, 1000 = outside assay limits): 1000 pg/mL; IFN-α (pg/ml) 28065 (human PBMCs; donor 28065, 20 ug/ml, 24 h, + PLGA = premixed with 100 μg/ml cPLGA): 13 pg/mL; IFN-α (pg/ml) 28066 (human PBMCs; [3]): 0 pg/mL; IFN-γ (pg/ml) 28066 (human PBMCs; [3]): 8 pg/mL; IFN-α (pg/ml) 28067 (human PBMCs; [4]): 22 pg/mL; IFN-γ (pg/ml) 28067 (human PBMCs; [4]): 57 pg/mL; IFN-α (pg/ml) 28068 (human PBMCs; [5]): 64 pg/mL; IFN-γ (pg/ml) 28068 (human PBMCs; [5]): 510 pg/mL; IFN-a (human PBMCs; donor 28185, Table 15): 25 pg/mL; IFN-g (human PBMCs; donor 28185, Table 15): 189 pg/mL; IFN-a (human PBMCs; donor 28186, Table 15): 16 pg/mL; IFN-g (human PBMCs; donor 28186, Table 15): 24 pg/mL; IFN-a (human PBMCs; donor 28187, Table 15): 4 pg/mL; IFN-g (human PBMCs; donor 28187, Table 15): 95 pg/mL; IFN-a (human PBMCs; donor 28188, Table 15): 146 pg/mL; IFN-g (human PBMCs; donor 28188, Table 15): 11 pg/mL; IFN-α (pg/ml) mean (human PBMCs; [6]): 71 pg/mL; IFN-γ (pg/ml) mean (human PBMCs; [6]): 1164 pg/mL; IFN-α mean (human PBMCs; [7]): 8; IFN-γ mean (human PBMCs; [7]): 56; IFN-α (pg/ml) mean (human PBMCs; [8]): 25 pg/mL; IFN-γ (pg/ml) mean (human PBMCs; [8]): 394 pg/mL; IFN-a (pg/ml) mean (human PBMCs; [9]): 48 pg/mL; IFN-g (pg/ml) mean (human PBMCs; [9]): 80 pg/mL; IFN-a (pg/ml) ×2 (human PBMCs; mean ×2, Table 15): 95 pg/mL; IFN-g (pg/ml) ×4 (human PBMCs; mean ×4, Table 15): 319 pg/mL; cpm1 (PBMCs; Donor 146, 2 μg/ml): 55348 cpm; cpm2 (PBMCs; Donor 146, 2 μg/ml): 24857 cpm; cpm3 (PBMCs; Donor 146, 2 μg/ml): 39953 cpm; mean cpm (PBMCs; Donor 146 mean): 40053 cpm; cpm1 (PBMCs; Donor 147, 2 μg/ml): 88106 cpm; cpm2 (PBMCs; Donor 147, 2 μg/ml): 65413 cpm; cpm3 (PBMCs; Donor 147, 2 μg/ml): 90665 cpm; mean cpm (PBMCs; Donor 147 mean): 81395 cpm; mean of both (PBMCs; mean of Donors 146 and 147, 2 μg/ml): 60724 cpm

Q: With `OCCCCCCCCCCCCO` [1,12-dihydroxydodecane] as the compound, how does the solubility [2] read?
A: The solubility was < 5000 µg/mL.
